How the values were obtained:
[1] = target: T1, Neuropeptide Y receptor type 1 (Rattus norvegicus, UniProt P21555); experiment: The compound was tested for the binding affinity against NPY1 (Neuropeptide Y receptor type 1)
T1 sequence (P21555 whole entry): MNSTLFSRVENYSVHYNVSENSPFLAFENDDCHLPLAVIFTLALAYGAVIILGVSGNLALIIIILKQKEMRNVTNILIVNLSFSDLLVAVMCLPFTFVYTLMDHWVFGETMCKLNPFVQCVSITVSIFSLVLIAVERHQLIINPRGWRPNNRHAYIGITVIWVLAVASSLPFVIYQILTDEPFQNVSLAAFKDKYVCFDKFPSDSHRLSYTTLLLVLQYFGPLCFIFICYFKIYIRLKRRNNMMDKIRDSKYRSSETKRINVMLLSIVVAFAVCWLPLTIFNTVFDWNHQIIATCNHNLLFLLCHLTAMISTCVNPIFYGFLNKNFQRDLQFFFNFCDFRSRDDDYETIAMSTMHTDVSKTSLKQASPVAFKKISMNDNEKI

[2] = target: Neuropeptide Y receptor type 4 (Rattus norvegicus, UniProt Q63447); experiment: The compound was tested for the binding affinity against Neuropeptide Y receptor type 4
[3] = target: T2, Neuropeptide Y receptor type 2 (Rattus norvegicus, UniProt Q9ERC0); experiment: The compound was tested for the binding affinity against Neuropeptide Y receptor type 2
T2 sequence (Q9ERC0 whole entry): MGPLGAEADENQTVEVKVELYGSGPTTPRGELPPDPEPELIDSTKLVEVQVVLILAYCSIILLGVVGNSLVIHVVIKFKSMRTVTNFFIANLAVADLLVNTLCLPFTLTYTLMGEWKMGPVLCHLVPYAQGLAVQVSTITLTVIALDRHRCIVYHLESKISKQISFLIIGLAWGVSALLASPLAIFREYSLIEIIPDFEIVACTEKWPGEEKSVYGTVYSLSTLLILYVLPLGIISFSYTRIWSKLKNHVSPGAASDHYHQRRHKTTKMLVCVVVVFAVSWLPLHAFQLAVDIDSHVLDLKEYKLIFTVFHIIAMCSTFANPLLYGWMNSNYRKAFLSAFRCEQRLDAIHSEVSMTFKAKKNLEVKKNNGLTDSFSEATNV

[4] = target: T1, Neuropeptide Y receptor type 1; experiment: The compound was tested for the binding affinity against Neuropeptide Y receptor type 1 in rat
[5] = target: T3, Neuropeptide Y receptor type 5 (Rattus norvegicus, UniProt Q63634); experiment: The compound was tested for the binding affinity against Neuropeptide Y receptor type 5 in rat
T3 sequence (Q63634 whole entry): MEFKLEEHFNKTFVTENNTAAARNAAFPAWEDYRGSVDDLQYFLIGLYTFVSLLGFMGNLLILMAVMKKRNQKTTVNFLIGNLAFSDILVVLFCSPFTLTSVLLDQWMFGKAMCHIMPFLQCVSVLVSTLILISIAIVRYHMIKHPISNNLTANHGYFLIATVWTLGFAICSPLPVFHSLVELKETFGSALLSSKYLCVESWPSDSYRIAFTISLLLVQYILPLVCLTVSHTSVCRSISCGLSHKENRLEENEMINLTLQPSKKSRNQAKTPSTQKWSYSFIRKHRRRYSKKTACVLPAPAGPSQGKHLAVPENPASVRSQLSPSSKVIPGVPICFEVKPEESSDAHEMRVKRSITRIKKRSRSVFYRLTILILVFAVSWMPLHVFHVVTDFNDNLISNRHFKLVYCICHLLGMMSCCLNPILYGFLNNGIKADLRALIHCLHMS

[6] = Oral bioavailability of the compound.; type: ADME, organism-based; settings: in vivo
[7] = target: T4, Beta-3 adrenergic receptor (Homo sapiens, UniProt P13945); experiment: Binding affinity towards Beta-3 adrenergic receptor
Target sequence in this assay (P13945 whole entry): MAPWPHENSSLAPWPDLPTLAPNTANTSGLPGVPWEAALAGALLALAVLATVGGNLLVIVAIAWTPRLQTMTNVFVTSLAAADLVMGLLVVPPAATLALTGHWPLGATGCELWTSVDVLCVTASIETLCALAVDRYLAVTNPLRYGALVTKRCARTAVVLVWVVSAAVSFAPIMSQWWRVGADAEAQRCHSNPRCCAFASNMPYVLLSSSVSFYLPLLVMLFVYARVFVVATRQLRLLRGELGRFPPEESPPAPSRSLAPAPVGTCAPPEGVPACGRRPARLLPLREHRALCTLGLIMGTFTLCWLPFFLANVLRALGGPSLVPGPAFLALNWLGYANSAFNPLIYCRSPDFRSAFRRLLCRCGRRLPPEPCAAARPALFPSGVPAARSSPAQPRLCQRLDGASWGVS

[8] = target: T4, Beta-3 adrenergic receptor; experiment: Beta-3 adrenergic receptor intrinsic activity relative to isoproterenol
Target sequence in this assay (P13945 whole entry, looked up): as the sequence (P13945 whole entry) above

[9] = Bioavailability in dog; type: ADME, organism-based, Canis lupus familiaris; settings: in vivo
Rhesus monkey [10] = experiment: Effective dose to stimulate lipolysis in Rhesus monkeys(iv); type: functional, Cercopithecidae; settings: Macaca mulatta
[11] = target: T4, Beta-3 adrenergic receptor; experiment: Binding affinity towards human Beta-3 adrenergic receptor
Target sequence in this assay (P13945 whole entry): as above

[12] = target: T5, Neuropeptide Y receptor type 1 (Homo sapiens, UniProt P25929); experiment: The compound was tested for the binding affinity against Neuropeptide Y receptor type 1
T5 sequence (P25929 whole entry): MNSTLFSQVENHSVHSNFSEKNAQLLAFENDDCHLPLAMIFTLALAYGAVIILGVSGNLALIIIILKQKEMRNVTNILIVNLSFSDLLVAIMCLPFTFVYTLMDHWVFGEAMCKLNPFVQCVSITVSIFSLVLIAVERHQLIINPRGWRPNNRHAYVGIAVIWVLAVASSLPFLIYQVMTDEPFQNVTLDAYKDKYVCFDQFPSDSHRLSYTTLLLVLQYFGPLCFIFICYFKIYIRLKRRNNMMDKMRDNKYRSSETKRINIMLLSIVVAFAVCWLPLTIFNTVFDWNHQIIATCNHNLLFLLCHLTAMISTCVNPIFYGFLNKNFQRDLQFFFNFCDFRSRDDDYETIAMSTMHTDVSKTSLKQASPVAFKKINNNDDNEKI

[13] = Oral bioavailability in rat; type: ADME, organism-based; settings: in vivo
[14] = Bioavailability in rat; type: ADME, organism-based; settings: in vivo, read-out: Bioavailabiility
[15] = target: T6, Cholecystokinin receptor type A (Mus musculus, UniProt O08786); experiment: Binding affinity in Cholecystokinin type A receptor binding assay […]
T6 sequence (O08786 whole entry): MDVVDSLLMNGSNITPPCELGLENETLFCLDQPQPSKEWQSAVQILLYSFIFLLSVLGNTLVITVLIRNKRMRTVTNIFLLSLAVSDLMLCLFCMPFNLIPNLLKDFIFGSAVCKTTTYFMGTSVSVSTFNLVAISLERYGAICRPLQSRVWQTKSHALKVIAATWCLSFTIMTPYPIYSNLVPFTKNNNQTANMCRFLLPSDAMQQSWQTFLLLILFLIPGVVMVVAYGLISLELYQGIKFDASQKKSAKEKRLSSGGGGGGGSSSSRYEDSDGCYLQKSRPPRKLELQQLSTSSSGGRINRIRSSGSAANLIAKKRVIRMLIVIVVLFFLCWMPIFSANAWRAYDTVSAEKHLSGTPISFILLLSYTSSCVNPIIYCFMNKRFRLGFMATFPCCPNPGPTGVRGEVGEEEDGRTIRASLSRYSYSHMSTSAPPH

[16] = Bioavailability in dogs; type: ADME, organism-based, Canis lupus familiaris; settings: dog, in vivo; read-out: Bioavailabiility
Rattus norvegicus = experiment: Ability to inhibit the food intake of Sprague-Dawley rats at 30 mg/kg after intraperitoneal administration.; type: functional; settings: ip
Rhesus monkey [17] = experiment: Effective dose to stimulate lipolysis in Rhesus monkeys (iv); type: functional, Cercopithecidae; settings: Macaca mulatta

Sequence of Neuropeptide Y receptor type 4 (Q63447 whole entry): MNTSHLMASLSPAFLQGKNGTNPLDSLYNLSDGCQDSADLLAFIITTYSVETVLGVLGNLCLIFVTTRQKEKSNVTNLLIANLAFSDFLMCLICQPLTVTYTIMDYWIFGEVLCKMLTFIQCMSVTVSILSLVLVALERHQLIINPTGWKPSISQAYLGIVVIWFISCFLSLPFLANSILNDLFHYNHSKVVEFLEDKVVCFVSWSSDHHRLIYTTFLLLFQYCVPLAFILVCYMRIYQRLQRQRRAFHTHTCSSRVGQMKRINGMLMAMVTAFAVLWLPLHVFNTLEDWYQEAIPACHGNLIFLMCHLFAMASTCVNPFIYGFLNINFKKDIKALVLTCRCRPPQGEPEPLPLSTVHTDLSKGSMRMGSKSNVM

Compound: O=C(CN1CCC(n2c(=O)[nH]c3ccccc32)CC1)Nc1ccc2c(c1)-c1ccccc1C2=O
- IC50 [1]: > 5000 nM
- IC50 [2]: > 5000 nM
- IC50 [3]: > 5000 nM

Compound: Clc1ccc(OCc2nc3c(OCCCN4CCCCC4)cccc3n2CCCC2CCCNC2)cc1 (configuration not stated)
- IC50 [4]: 1.7 nM

Compound: COc1ccc(-c2cc(NC(=O)Cc3ccc4ccccc4c3)[nH]n2)cc1OC
- IC50 [5]: 8.3 nM

Compound: CCCCCCNC(=O)Nc1ccc(S(=O)(=O)Nc2ccc(CCNC[C@H](O)COc3ccc(O)cc3)cc2)cc1 [L-755507]
- bioavailability [6]: 1%

Compound: C[C@H](Cc1ccc(OCP(=O)(O)c2ccccc2)cc1)NC[C@H](O)COc1ccc(O)c(NS(C)(=O)=O)c1
- EC50 [7]: < 300 nM
- Intrinsic activity [8]: > 80%

Compound: O=S(=O)(Nc1ccc(CCNC[C@H](O)COc2cccnc2)cc1)c1ccc(I)cc1 [L-749372]
- bioavailability [9]: 47%
- ED50 (Rhesus monkey [10]): 2 mg/kg

Compound: CC(C)(Cc1ccc(Oc2ccc(C(N)=O)cn2)cc1)NC[C@H](O)COc1cccc2[nH]c(=O)[nH]c12
- EC50 [11]: 30 nM

Compound: CC[C@H]1CC[C@@](c2cccc(OCOC)c2)(N2CCN(c3ccccc3)CC2)CC1
- IC50 [12]: 39 nM

Compound: Cc1cc(N2CCCC2)cc(/C=C/c2cccc(C(F)(F)F)c2)n1
- IC50 [5]: 4.1 nM

Compound: COc1ccc(N(C(=O)CN2C(=O)C(Cc3n[nH]c4ccccc34)C(=O)N(c3ccccc3)c3ccccc32)C(C)C)cc1 (configuration not stated)
- bioavailability [13]: 8%

Compound: Cn1c(C(=O)O)cc2cc(OCCNC[C@H](O)c3ccc(N)nc3)ccc21
- EC50 [11]: 300 nM
- bioavailability [14]: < 10%

Compound: CCCCNC(=O)[C@@H]1Cc2ccccc2N1C(=O)CC(N)CC (some centres not stated)
- Ki [15]: 7 nM

Compound: O=S(=O)(Nc1ccc(CCNC[C@H](O)c2cccnc2)cc1)c1ccc(I)cc1
- bioavailability [16]: 51%

Compound: CN(C)CCCNc1nc(NC[C@H]2CC[C@H](CNS(=O)(=O)c3cccc4ccccc34)CC2)nc2ccccc12
- inhibition in vivo at 30 mg/kg (Rattus norvegicus): 96%

Compound: CC(C)c1ccc(S(=O)(=O)Nc2ccc(CCNC[C@H](O)COc3ccc(N)nc3)cc2)cc1
- F [9]: 41%
- bioavailability [9]: 47%
- bioavailability [14]: 4%

Compound: Nc1ccc(OC[C@@H](O)CNCCc2ccc(NS(=O)(=O)c3ccc(I)cc3)cc2)cn1
- ED50 (Rhesus monkey [17]): 0.8 mg/kg

Compound: CS(=O)(=O)Nc1cc([C@@H](O)CN[C@H](Cc2cccc(Cl)c2)c2ccc(OC(F)F)cc2)ccc1O
- Ki [11]: 9 nM

Compound: COc1ccc(-c2cc(NC(=O)CC34CCCC3Cc3ccccc3C4)[nH]n2)cc1OC (configuration not stated)
- IC50 [5]: 2.3 nM

Compound: CCCCCCP(=O)(O)COc1ccc(C[C@@H](C)NC[C@H](O)COc2ccc(O)c3c2CCC(=O)N3)cc1
- EC50 [7]: < 300 nM
- Intrinsic activity [8]: > 80%

From ChEMBL document CHEMBL1132409, “Pharmacological treatment of obesity: therapeutic strategies” (J Med Chem, 1999)
